IC50 data for 6 molecules are collected here from US20240101576A1, “HETEROCYCLIC INHIBITORS OF EGFR AND/OR HER2, FOR USE IN THE TREATMENT OF CANCER” (Scorpion Therapeutics, Inc., priority 2020, published 2024).

Type in all cases: cell-based
Assay [1] deals with T1, EGFR L858R (Ba/F3 cells) (Homo sapiens, UniProt P00533, L858R).
T1 construct: expressed in transfected cells; host or cells: Ba/F3 (murine pro-B cells), retroviral transduction, puromycin selection, IL3-independent pool
In words: Inhibitor activity on EGFR-dependent cell growth (CellTiter-Glo, 72 h), Ba/F3 EGFR L858R. The settings on record: read-out: BaF3 L858R IC50. In short, it runs like this: (§1)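 Cell viability was measured by CellTiter-Glo after a three-day treatment. The IL3-free Ba/F3 lines carried L858R, L858R/C797S, exon 19 deletion or FQEA insertion EGFR and were seeded at 400, 600, 800 and 800 cells/well respectively.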
In general terms: ATP-based viability assays read luminescence as a measure of living cells.

Assay [2] addresses T2, EGFR exon 19del (Ba/F3 cells) (Homo sapiens, UniProt P00533). In words: Inhibitor activity on EGFR phosphorylation (pEGFR AlphaLISA, 2 h), Ba/F3 EGFR exon 19del. The settings on record: read-out: Del19 IC50 (pEGFR). In short, it runs like this:
(§2)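 Cellular EGFR autophosphorylation assay. IL3-independent Ba/F3 transductants or CUTO14 cells are incubated with serially diluted compound (3-fold, 10 points) for 2 h, then lysed and pEGFR quantified by AlphaLISA.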
For orientation: Bead proximity is the source of the signal in Alpha formats.

Assay [3] has as its target T3, EGFR WT (Ba/F3 cells) (Homo sapiens, UniProt P00533).
T3 construct: expressed in transfected cells; host or cells: Ba/F3 (murine pro-B cells), retroviral transduction, puromycin selection, maintained with EGF
Kind of assay: Inhibitor activity on EGFR-dependent cell growth (CellTiter-Glo, 72 h), Ba/F3 EGFR WT. The settings on record: read-out: BaF3 WT IC50. A digest of the protocol: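 This growth assay used Ba/F3 cells that depend on wild-type EGFR and are kept in EGF without IL3. Compounds were made up as 10 mM DMSO stocks and diluted 3-fold over 10 points. 120 nL went onto 600 cells/well. After 72 hours, 40 μL CellTiter-Glo was added and luminescence read on EnVision after 30 min.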

The target of assay [4] is T4, EGFR exon 20 FQEA Ins A763_V764 (Ba/F3 cells) (Homo sapiens, UniProt P00533, INS763FQEA).
T4 construct: expressed in transfected cells; host or cells: Ba/F3 (murine pro-B cells), retroviral transduction, puromycin selection, IL3-independent pool
In words: Inhibitor activity on EGFR-dependent cell growth (CellTiter-Glo, 72 h), Ba/F3 EGFR exon 20 FQEA Ins. The settings on record: read-out: BaF3 FQEA IC50. In short, it runs like this:
as §1

Assay [5] deals with T5, EGFR exon 20 NPG Ins D770_N771 (Ba/F3 cells) (Homo sapiens, UniProt P00533, INS770NPG).
T5 construct: expressed in transfected cells; host or cells: Ba/F3 (murine pro-B cells), retroviral transduction, puromycin selection, IL3-independent pool
T5 sequence (P00533 with tags, fused parts or gaps INS770NPG): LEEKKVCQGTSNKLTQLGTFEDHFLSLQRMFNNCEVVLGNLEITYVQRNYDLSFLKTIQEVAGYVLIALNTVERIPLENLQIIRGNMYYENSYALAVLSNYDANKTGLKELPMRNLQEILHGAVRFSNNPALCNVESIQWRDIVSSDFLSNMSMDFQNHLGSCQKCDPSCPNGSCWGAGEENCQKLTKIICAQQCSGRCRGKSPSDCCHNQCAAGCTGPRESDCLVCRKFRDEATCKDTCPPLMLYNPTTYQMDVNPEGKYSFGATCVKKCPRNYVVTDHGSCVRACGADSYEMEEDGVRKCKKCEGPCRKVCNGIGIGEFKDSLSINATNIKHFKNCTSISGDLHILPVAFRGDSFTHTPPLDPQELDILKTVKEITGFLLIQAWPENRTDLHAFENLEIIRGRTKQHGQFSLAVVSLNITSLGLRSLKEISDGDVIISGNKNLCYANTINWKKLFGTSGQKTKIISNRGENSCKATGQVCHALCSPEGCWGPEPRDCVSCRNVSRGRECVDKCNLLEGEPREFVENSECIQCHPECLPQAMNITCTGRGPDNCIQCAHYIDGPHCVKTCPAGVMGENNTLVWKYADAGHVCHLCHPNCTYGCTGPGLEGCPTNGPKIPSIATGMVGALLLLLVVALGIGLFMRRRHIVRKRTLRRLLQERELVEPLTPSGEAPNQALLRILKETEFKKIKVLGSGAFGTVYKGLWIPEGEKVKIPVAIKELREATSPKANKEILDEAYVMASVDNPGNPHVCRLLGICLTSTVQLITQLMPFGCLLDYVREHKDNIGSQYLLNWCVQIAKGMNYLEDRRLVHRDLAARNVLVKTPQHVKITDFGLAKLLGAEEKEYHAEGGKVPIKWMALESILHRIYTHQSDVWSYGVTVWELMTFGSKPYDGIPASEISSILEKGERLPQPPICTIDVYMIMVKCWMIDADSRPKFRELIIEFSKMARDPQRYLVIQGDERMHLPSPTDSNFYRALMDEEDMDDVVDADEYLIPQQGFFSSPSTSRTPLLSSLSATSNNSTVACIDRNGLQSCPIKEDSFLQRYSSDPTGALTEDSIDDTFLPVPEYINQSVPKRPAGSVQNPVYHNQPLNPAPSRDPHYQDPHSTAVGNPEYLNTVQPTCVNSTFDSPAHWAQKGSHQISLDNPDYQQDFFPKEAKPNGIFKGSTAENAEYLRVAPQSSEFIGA
In words: Inhibitor activity on EGFR-dependent cell growth (CellTiter-Glo, 72 h), Ba/F3 EGFR exon 20 NPG Ins. The settings on record: read-out: BaF3 NPG IC50. In short, it runs like this: (§3)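 IC50s derive from a sigmoidal dose–response fit of CellTiter-Glo signal. The signal was normalised between […]-treated cells and cell-free medium. Ba/F3 mutant-EGFR cells, seeded at 400–800/well depending on the line, had 72 h of exposure to a 10-point, 3-fold compound series.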

For assay [6], the target named is T6, EGFR exon 20 SVD Ins D770_N771 (Ba/F3 cells) (Homo sapiens, UniProt P00533, INS770SVD).
T6 construct: expressed in transfected cells; host or cells: Ba/F3 (murine pro-B cells), retroviral transduction, puromycin selection, IL3-independent pool
In words: Inhibitor activity on EGFR-dependent cell growth (CellTiter-Glo, 72 h), Ba/F3 EGFR exon 20 SVD Ins. The settings on record: read-out: BaF3 SVD IC50. A digest of the protocol: as §3

The target of assay [7] is T7, EGFR L858R/C797S (Ba/F3 cells) (Homo sapiens, UniProt P00533, C797S/L858R).
T7 construct: expressed in transfected cells; host or cells: Ba/F3 (murine pro-B cells), retroviral transduction, puromycin selection, IL3-independent pool
T7 sequence (P00533 25-1210 C797S/L858R): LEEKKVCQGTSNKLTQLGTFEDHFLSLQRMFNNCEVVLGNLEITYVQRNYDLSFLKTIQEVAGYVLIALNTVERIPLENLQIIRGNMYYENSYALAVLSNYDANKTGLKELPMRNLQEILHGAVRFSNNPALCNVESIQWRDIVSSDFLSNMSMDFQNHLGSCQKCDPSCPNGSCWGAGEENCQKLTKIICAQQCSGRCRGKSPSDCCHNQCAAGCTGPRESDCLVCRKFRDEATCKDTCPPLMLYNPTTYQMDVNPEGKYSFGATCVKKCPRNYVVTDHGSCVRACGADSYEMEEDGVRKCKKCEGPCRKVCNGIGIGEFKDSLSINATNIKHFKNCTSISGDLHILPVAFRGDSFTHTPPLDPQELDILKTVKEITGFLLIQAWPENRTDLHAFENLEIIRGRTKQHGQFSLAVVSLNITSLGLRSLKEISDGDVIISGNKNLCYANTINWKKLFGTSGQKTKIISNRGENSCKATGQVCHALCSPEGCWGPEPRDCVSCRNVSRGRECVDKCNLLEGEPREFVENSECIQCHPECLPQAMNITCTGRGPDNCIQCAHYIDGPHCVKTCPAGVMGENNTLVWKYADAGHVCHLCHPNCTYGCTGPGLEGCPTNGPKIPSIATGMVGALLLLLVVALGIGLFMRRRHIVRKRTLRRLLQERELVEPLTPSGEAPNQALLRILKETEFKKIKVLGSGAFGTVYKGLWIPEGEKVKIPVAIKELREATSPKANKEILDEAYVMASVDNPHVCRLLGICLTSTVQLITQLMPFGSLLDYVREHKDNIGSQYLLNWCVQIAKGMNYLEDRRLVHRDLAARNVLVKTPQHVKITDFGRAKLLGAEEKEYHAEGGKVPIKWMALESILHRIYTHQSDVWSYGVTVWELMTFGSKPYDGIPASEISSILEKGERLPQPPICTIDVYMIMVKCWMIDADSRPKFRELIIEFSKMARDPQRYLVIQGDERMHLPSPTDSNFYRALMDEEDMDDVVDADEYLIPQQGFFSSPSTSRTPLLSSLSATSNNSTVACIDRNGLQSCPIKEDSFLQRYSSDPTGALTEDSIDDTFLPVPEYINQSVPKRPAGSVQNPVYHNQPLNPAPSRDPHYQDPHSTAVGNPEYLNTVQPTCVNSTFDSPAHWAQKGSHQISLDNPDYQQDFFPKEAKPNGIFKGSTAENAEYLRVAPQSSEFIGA
In words: Inhibitor activity on EGFR phosphorylation (pEGFR AlphaLISA, 2 h), Ba/F3 EGFR L858R/C797S. In short, it runs like this:
as §2

Assay [8] deals with T8, EGFR exon 20 ASV Ins V769_D770 (Ba/F3 cells) (Homo sapiens, UniProt P00533, INS769ASV).
T8 construct: expressed in transfected cells; host or cells: Ba/F3 (murine pro-B cells), retroviral transduction, puromycin selection, IL3-independent pool
Kind of assay: Inhibitor activity on EGFR-dependent cell growth (CellTiter-Glo, 72 h), Ba/F3 EGFR exon 20 ASV Ins. The settings on record: read-out: BaF3 ASV IC50. A digest of the protocol: as §3

Assay [9] concerns the target T2, EGFR exon 19del (Ba/F3 cells). Kind of assay: Inhibitor activity on EGFR-dependent cell growth (CellTiter-Glo, 72 h), Ba/F3 EGFR exon 19del. The settings on record: Ba/F3 EGFR exon 19del cell growth, read-out: BaF3 Del19 IC50. A digest of the protocol:
as §1

The target in assay [10] is T7, EGFR L858R/C797S (Ba/F3 cells). Kind of assay: Inhibitor activity on EGFR-dependent cell growth (CellTiter-Glo, 72 h), Ba/F3 EGFR L858R/C797S. The settings on record: read-out: BaF3 L858R/C797S IC50. In short, it runs like this: as §1
In assay [11] the target is T1, EGFR L858R (Ba/F3 cells). Kind of assay: Inhibitor activity on EGFR phosphorylation (pEGFR AlphaLISA, 2 h), Ba/F3 EGFR L858R. In short, it runs like this:
as §2

Assay [12] concerns the target EGFR (CUTO14 cells) (Homo sapiens, UniProt P00533). In words: Inhibitor activity on EGFR phosphorylation (pEGFR AlphaLISA, 2 h), CUTO14 cells. In short, it runs like this:
as §2

Structures are written as SMILES.

T2 sequence (P00533 with tags, fused parts or gaps DEL746-750): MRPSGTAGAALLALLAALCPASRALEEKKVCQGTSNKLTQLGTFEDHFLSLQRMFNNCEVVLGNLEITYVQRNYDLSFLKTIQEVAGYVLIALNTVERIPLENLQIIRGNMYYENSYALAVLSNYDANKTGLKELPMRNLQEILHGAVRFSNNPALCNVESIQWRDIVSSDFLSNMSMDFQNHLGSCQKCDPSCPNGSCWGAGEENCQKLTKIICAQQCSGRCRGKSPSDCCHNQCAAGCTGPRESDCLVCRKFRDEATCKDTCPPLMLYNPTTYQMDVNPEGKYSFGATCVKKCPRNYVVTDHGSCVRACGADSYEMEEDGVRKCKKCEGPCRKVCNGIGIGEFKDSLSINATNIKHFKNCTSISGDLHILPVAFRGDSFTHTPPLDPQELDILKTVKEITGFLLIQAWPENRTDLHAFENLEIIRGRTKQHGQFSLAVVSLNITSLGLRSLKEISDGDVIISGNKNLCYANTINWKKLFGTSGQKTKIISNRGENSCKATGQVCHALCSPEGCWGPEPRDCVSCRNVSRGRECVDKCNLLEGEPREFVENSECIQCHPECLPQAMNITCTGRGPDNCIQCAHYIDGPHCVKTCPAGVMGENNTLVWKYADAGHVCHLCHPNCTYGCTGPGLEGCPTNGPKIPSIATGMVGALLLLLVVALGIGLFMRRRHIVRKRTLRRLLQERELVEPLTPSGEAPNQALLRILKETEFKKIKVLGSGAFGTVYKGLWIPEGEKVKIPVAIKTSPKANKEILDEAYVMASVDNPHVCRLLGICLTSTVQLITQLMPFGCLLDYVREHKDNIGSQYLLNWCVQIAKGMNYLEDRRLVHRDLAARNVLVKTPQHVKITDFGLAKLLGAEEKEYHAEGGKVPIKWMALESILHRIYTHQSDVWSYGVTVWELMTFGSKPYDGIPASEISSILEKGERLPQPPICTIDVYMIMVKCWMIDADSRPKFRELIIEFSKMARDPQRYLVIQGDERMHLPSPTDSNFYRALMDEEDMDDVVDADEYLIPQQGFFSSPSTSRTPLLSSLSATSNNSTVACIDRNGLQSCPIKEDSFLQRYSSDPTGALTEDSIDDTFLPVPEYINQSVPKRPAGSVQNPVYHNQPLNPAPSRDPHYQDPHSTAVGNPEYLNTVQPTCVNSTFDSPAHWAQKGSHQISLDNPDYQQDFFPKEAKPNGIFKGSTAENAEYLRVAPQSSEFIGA
T3 sequence (P00533 25-1210): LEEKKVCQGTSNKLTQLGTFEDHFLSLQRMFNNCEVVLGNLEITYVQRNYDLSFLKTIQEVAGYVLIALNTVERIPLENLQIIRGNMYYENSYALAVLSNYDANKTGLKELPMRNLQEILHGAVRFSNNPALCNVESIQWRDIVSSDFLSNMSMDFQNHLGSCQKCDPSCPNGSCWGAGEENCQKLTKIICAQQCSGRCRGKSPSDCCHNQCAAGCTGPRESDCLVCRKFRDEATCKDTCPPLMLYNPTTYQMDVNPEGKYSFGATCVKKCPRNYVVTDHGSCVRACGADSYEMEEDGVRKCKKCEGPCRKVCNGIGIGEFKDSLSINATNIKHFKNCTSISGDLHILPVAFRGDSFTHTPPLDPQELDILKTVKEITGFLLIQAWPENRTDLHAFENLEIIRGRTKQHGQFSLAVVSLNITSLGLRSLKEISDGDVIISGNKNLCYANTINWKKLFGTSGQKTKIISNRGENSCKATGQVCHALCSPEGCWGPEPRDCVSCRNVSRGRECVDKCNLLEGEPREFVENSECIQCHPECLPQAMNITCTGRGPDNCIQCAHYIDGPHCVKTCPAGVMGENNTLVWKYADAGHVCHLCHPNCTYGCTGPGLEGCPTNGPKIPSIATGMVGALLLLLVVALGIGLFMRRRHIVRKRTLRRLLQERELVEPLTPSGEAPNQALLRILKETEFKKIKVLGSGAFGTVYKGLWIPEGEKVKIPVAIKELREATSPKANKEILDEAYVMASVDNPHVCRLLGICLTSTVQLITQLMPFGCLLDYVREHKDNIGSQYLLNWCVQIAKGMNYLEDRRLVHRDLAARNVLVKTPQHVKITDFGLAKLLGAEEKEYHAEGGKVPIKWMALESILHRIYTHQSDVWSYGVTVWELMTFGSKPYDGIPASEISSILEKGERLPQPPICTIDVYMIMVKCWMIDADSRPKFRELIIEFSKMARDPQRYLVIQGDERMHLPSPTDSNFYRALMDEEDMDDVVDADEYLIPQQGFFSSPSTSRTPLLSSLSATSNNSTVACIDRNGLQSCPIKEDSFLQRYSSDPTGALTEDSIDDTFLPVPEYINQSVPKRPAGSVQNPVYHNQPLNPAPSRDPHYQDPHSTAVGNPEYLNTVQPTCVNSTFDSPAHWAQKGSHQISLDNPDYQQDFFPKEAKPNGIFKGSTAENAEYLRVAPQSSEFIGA

Consider `COc1c(Cl)cccc1Nc1c(-c2ccnc3ccc(C)nc23)[nH]c2c1C(=O)NCC2` [compound 749, 3-[(3-chloro-2-methoxyphenyl)amino]-2-(6-methyl-1,5-naphthyridin-4-yl)-1H,5H,6H,7H-pyrrolo[3,2-c]pyridin-4-one], for which the IC50 was below 100 nM in assay [1]; below 100 nM in assay [2]; 100 to 1000 nM in [3]; below 100 nM in assay [4]; below 100 nM in assay [5]; below 100 nM in [6]. In addition, the IC50 in assay [7], in assay [8], in assay [9], in assay [10] and in [11] was below 100 nM each time.
`COc1c(Cl)cccc1Nc1c(-c2ccncn2)[nH]c2c1C(=O)NCC2C[C@H]1COCCO1` (single isomer, unassigned) [Compound 527, (7R*)-3-[(3-chloro-2-methoxyphenyl)amino]-7-[(2S)-1,4-dioxan-2-ylmethyl]-2-(pyrimidin-4-yl)-1H,5H,6H,7H-pyrrolo[3,2-c]pyridin-4-one]: the IC50 is below 100 nM in assay [12]; below 100 nM in assay [1]; below 100 nM in assay [2]; 100 to 1000 nM in assay [3]; below 100 nM in [5]; below 100 nM in [7]. The IC50 in assay [9], in assay [10] and in [11] was below 100 nM in each case.
With `COc1c(Cl)cccc1Nc1c(-c2ccncn2)[nH]c2c1C(=O)NC[C@H]2C[C@@H]1COCCO1` [Compound 568, (7R)-3-[(3-chloro-2-methoxyphenyl)amino]-7-[(2R)-1,4-dioxan-2-ylmethyl]-2-(pyrimidin-4-yl)-1H,5H,6H,7H-pyrrolo[3,2-c]pyridin-4-one], the IC50 was below 100 nM in [12]; below 100 nM in assay [1]; below 100 nM in assay [2]; 100 to 1000 nM in assay [3]; below 100 nM in assay [4]; below 100 nM in assay [5]. The IC50 in assay [7], in [9], in assay [10] and in assay [11] was below 100 nM in each case.
On to `CCOc1ncc2nccc(-c3[nH]c4c(c3Nc3cccc(Cl)c3OC)C(=O)NCC4)c2n1` [compound 827, 3-[(3-chloro-2-methoxyphenyl)amino]-2-{2-ethoxypyrido[3,2-d]pyrimidin-8-yl}-1H,5H,6H,7H-pyrrolo[3,2-c]pyridin-4-one], for which the IC50 in assay [1], in assay [2], in assay [3], in [4], in assay [5] and in assay [6] was below 100 nM in each case. Moreover, the IC50 in [7], in assay [8], in assay [9], in [10] and in [11] was below 100 nM in each case.
Consider `COc1c(Cl)cccc1Nc1c(-c2ccncc2F)[nH]c2c1C(=O)NC[C@]21CCN(CC(F)F)C1` [compound 821], for which the IC50 in assay [1] was below 100 nM; in assay [2] it was below 100 nM; in [3], 100 to 1000 nM; in assay [4], below 100 nM; in assay [5], below 100 nM; in assay [6] it was below 100 nM. Also, the IC50 in assay [7], in [8], in assay [9], in assay [10] and in [11] was below 100 nM throughout.
Take `COc1c(F)cccc1Nc1c(-c2ccnc3ccc(OC4(C)COC4)nc23)[nH]c2c1C(=O)NCC2` [Compound 788, 3-[(3-fluoro-2-methoxyphenyl)amino]-2-[6-[(3-methyloxetan-3-yl)oxy]-1,5-naphthyridin-4-yl]-1H,5H,6H,7H-pyrrolo[3,2-c]pyridin-4-one]: the IC50 in assay [1], in assay [2], in assay [3], in assay [4], in assay [5] and in [6] was below 100 nM throughout. For the same molecule, the IC50 in assay [7], in [8], in assay [9], in assay [10] and in [11] was below 100 nM throughout.
